# Laboratory results as given in patent US20040202652A1, “Methods and compositions for control of bone formation via modulation of leptin activity” (Baylor College of Medicine, priority 1999, published 2004).
# Entries after “also recorded” stand apart in the source; their conditions may differ.
# Columns and labels:
# [1] = system: ob/ob mice; assay: 17 β-estradiol pellet treatment to correct hypogonadism of ob/ob mice; type: in vivo
# Experimental: (§1) Histologic analysis was performed on undecalcified sections stained with the von Kossa reagent and counterstained with Kernechtrot. In 3 and 6 month-old mice the presence of many more thick trabeculae in the bones of ob/ob mice compared to those of wild-type mice was observed (FIG. 1B). The cortical bone was not affected. Histomorphometric quantification according to standard techniques were performed (Parfitt et al., 1987, J Bone Min Res 2, 595-610) using the Osteomeasure Analysis System (Osteometrics, Atlanta). Statistical differences between groups (n=4 to 6) were assessed by Student's test. […] The functional consequences of this increase in bone mass were analyzed by comparing the biomechanical properties of long bones of 6 month-old ob/ob mice, wild-type mice, and wild-type mice that have been ovariectomized (wild-type-ovx) for 4 months to mimic the hypogonadic state of the ob/ob mice. An assay in which femora were tested to failure by three-point bending on a servo-hydrolic testing machine (Zwick GmbH & Co.) at a constant displacement rate of 10 mm/min was used to determine failure load, which is a measure of the strength of the bones. […] Analysis of the bones of the db/db mice that have an inactivating mutation of the leptin receptor was also performed (Tartaglia et al., 1995, Cell 83, 1263-1271). Like the ob/ob mice, the db/db mice are obese and hypogonadic. There was an increase in the number of trabeculae in both long bones and vertebrae similar to that observed in ob/ob mice (FIG. IE) resulting in a 3-fold increase in bone volume compared to wild-type mice (FIG. 1F).
# Nevertheless, to address this point more thoroughly the hypogonadism of the ob/ob mice was exploited. Hypogonadism normally leads to an increase in osteoclasts number and in bone resorptive activity. Thus, if the osteoclasts of the ob/ob mice were functional, correcting the hypogonadism of these mice should decrease their rate of bone resorption by diminishing the number of osteoclasts and thereby should further increase their bone mass. On the other hand, if the osteoclasts of the ob/ob mice were not functioning properly, correcting their hypogonadism should not affect the severity of their high bone mass phenotype. To determine which of these two possibilities was correct, 17 β-estradiol or placebo pellets (Innovative Research of America) were implanted subcutaneously in 2-month-old female ob/ob mice to maintain a serum concentration of 250 pg/mL. These animals were analyzed after a 3-month treatment period.
# [2] = system: Stat3 phosphorylation; assay: Western blot analysis of Stat3 phosphorylation in primary osteoblast cultures; type: cell-based, mice
# Experimental: (§2) Expression of leptin in osteoblasts was studied in subconfluent primary osteoblast cultures from wild-type mice which were maintained for 4 days in 10% FBS mineralization medium and then subsequently switched to 0.5% for 2 days and replaced daily. Medium was replaced 2 hours before a 20 min treatment with 80 ng/mL leptin (Sigma) or 40 ng/mL Oncostatin M (R&D Diagnostics) or vehicle. RNA extractions were performed using Triazol (Gibco). Northern blots were performed with 15 μg of total RNA according to methods well known in the art.
# To determine whether or not leptin could transduce its signal in osteoblasts, serum-starved primary osteoblasts isolated from wild-type mice were treated with leptin. […]
# (§3) The phosphorylation of Stat3, a downstream effector of leptin signaling in its target cells (Tartaglia et al., 1995, Cell 83, 1263-1271; Baumann et al., 1996, Proc Natl Acad Sci USA 93, 8374-8378; Ghilardi et al., 1996, Proc Nati Acad Sci USA 93, 6231-6235; Vaisse et al., 1996, Nat Genet 14, 95-97), was monitored, in addition to the expression of two immediate early genes whose transcription is increased following leptin treatment of target cells (Elmquist et al., 1997, Endocrinology 138, 839-842). […]
# [3] = system: Tis11 and c-fos genes; assay: Northern blot analysis of immediate early gene expression in primary osteoblast cultures; type: cell-based, mice; conditions: 20 min treatment
# Experimental: as §2
# as §3, with “839-842). As a positive control oncostatin-M that induces Stat3 phosphorylation and activates the expression of the same two immediate early genes in osteoblasts (Levy et al., 1996, Endocrinology 137, 1159-1165) was utilized. Western blot analysis was performed to determine Stat3 phosphorylation as follows.” for “839-842).”
# [4] = system: primary osteoblast cultures from wild-type mice; assay: long-term leptin treatment of primary osteoblast cultures (van Gieson and von Kossa staining); type: cell-based; conditions: 1.2 μg/mL for 5 days, versus control (vehicle) cultures
# Experimental: To determine whether or not leptin could transduce its signal in osteoblasts, serum-starved primary osteoblasts isolated from wild-type mice were treated with leptin. Primary osteoblast cultures from calvaria of newborn wild-type or db/db mice were established as previously described (Ducy et al., 1999, Genes Dev 13, 1025-1036) and maintained in mineralization medium (αMEMI 0.1 mg/mL ascorbic acid; 5 mM […]) supplemented with 10% […]. Cultures of mutant cells were maintained in this medium for 15 days before analysis. Cultures derived from wild-type mice were maintained for 10 days in this medium then the percentage of serum was reduced to 0.5% and the medium supplemented with 1.2 μg/mL leptin (Sigma) or vehicle for 5 days.
# Finally, the effect of a long-term leptin treatment of primary osteoblast cultures from wild-type mice on extracellular matrix synthesis and bone matrix mineralization was determined. The presence of a collagen-rich extracellular matrix and of mineralization nodules was assessed by whole-mount staining of the cultures by the van Gieson and von Kossa reagent, respectively. No difference was observed when assessing collagen synthesis or mineralization nodule formation between control and leptin-treated cultures (FIG. 5E).
# [5] = system: ob/ob mice; assay: intracerebroventricular infusion of leptin in ob/ob mice, bone histology and histomorphometry; type: in vivo; conditions: ovariectomized ob/ob mice, third ventricle, 8 ng/hr, 28 days, versus PBS
# Experimental: as §1
# The increase in bone mass could be due to an increase in osteoblastic bone formation, to a decrease in osteoclastic bone resorption, or to a combination of both abnormalities. To study osteoblast function in vivo, the rate of bone formation was quantified following double labeling with calcein, a marker of newly formed bone (FIG. 3A) as described (Ducy et al., 1999, Genes Dev 13, 1025-1036). Calcein was injected twice at 8 day intervals and animals were sacrificed two days later. In 3 month-old, and 6 month-old ob/ob mice there was a 70% and 60%, respectively, increase of the bone formation rate compared to the one of wild-type littermates (FIG. 3B).
# Lastly, the issue of whether leptin binding to its hypothalamic receptor could correct the high bone mass phenotype of the ob/ob mice as it can rescue their obesity phenotype was addressed. To that end pumps delivering either PBS or leptin (8 ng/hr) in the third ventricle of ob/ob mice were inserted as follows. Animals were anesthetized with avertin and placed on a stereotaxic instrument (Stoelting). The calvaria was exposed and a 0.7 mm hole was drilled upon bregma. A 28-gauge cannula (Brain infusion kit U, Alza) was implanted into the third ventricle according to the following coordinates: midline, −0.3 AP, 3 mm ventral (0 point bregma). The cannula was secured to the skull with cyanoacrylate, and attached with Tygon tubing to an osmotic pump (Alza) placed in the dorsal subcutaneous space of the animal. The rate of delivery was 0.25:1/hour (8 ng/hr of leptin (Sigma)) or PBS for 28 days. The dosage has been previously shown to have no effect when administered systemically (Halaas et al., 1997, Proc Nati Acad Sci USA 94, 8878-8883). […]
# [6] = serum leptin radioimmunoassay in centrally infused ob/ob mice; type: in vivo; conditions: after intracerebroventricular infusion, 8 ng/hr, 28 days
# Experimental: The coexistence of a high bone mass phenotype and of hypogonadism was so exceptional that it raised the hypothesis that bone resorption might be defective in these mice. The increased urinary elimination of deoxypyridinoline crosslinks (Dpd), a biochemical marker of bone resorption (Eyre et al., 1988, Biochem 252, 494-500), in the ob/ob mice argued against this hypothesis (wild-type: 10.5±2.5 nM Dpd/mM creatinine; ob/ob: 24.0 b 4.0 nM Dpd/mM creatinine). Deoxypyridinoline crosslinks were measured in morning urines using the Pyrilinks-D immunoassay kit (Metra Biosystem). Creatinine values were used for standardization between samples (Creatinine kit, Metra Biosystem). Circulating concentration of […] and leptin were quantified by radioimmunoassays, using the third generation estradiol kit (Diagnostic system laboratories) and the mouse leptin RIA kit (Linco), respectively. […] Coadministration of an estrogen analog with an Ob or ObR inhibitor further increases the high bone mass phenotype.
# Lastly, the issue of whether leptin binding to its hypothalamic receptor could correct the high bone mass phenotype of the ob/ob mice as it can rescue their obesity phenotype was addressed. […]
# [7] = 8 ng/hr dosage, systemic; cited from earlier work
# [8] = end of the 3-month treatment period
# [9] = female ob/ob mice, subcutaneous pellets, 3-month treatment
Molecule,"increase in bone volume, treated ob/ob mice compared to estradiol-treated wild-type mice [1, 8] [%]","increase in bone volume, treated ob/ob mice compared to untreated wild-type mice [1, 8] [fold]","correction of hypogonadism (aspect of uteri, levels of estradiol in blood) [1, 9]","high bone mass phenotype compared to placebo treated ob/ob mice [1, 9]","osteoclast number [1, 9]","correction of hypogonadism (aspect of uteri, levels of estradiol in blood) ([1]; female ob/ob mice, subcutaneous pellets, 3-month treatment, listed as estradiol)","bone trabeculae, histological analysis of vertebrae ([1]; treated wt and even more treated ob/ob mice)","Stat3 phosphorylation, several doses ([2]; several doses, physiologic and supraphysiologic)",expression of Tis11 and c-fos [3],collagen synthesis (van Gieson staining) [4],matrix mineralization / mineralization nodule formation (von Kossa staining) [4],"bone appearance, classical histology [5]",bone formation rates [5],bone volume [5],number of trabeculae [5],trabeculae thickness [5],leptin in the serum [6],effect of the dosage when administered systemically [7],"Stat3 phosphorylation ([2]; primary osteoblasts from wild-type mice, serum-starved)"
C[C@]12CC[C@@H]3c4ccc(O)cc4CC[C@H]3[C@@H]1CC[C@@H]2O [17 β-estradiol],50,3,correction of the uterus atrophy,further increase of the high bone mass phenotype,normalization of the osteoclast number,corrected their hypogonadism,significant increase in bone trabeculae,,,,,,,,,,,,
leptin: endogenous polypeptide product of an ob gene; polypeptide hormone (Sigma),,,,,,,,failed to induce,not,No difference; also recorded: No effect,No difference; also recorded: No effect,regained a normal appearance,significantly decreased,significantly decreased,fewer trabeculae,significantly decreased,No leptin,no effect,
"Oncostatin-M: positive control that induces Stat3 phosphorylation and immediate early gene expression in osteoblasts (protein, UniProt P13725 26-221, looked up) Oncostatin-M: AAIGSCSKEYRVLLGQLQKQTDLMQDTSRLLDPYIRIQGLDVPKLREHCRERPGAFPSEETLRGLGRRGFLQTLNATLGCVLHRLADLEQRLPKAQDLERSGLNIEDLEKLQMARPNILGLRNNIYCMAQLLDNSDTAEPTKAGRGASQPPTPTPASDAFQRKLEGCRFLHGYHRFMHSVGRVFSKWGESPNRSRR",,,,,,,,,quickly and transiently activated,,,,,,,,,,did induce
